Source: ChEMBL document CHEMBL4483862, “Open-source discovery of chemical leads for next-generation chemoprotective antimalarials” (2018)

System: Plasmodium berghei
Assay: Luciferase/luciferin-expressing antifolate-resistant parasites were used to infect a culture of HepG2 cells that were pre-incubated with compounds. Infected hepatocytes emit light due to the luciferase reaction. Assay results are presented as the percent inhibition of light emission compared to control. […]
Format: functional
Conditions: sporozoite; for IC90: read-out: LUCIFERASE INFECTION ASSAY - IC90
[1] = read-out: LUCIFERASE INFECTION ASSAY - IC50

## CC(OC(=O)c1cccc(-n2cccc2)c1)C(=O)N1CCCC1 (stereo not drawn)
PBLUC_HILL_SLOPE 4.03, PBLUC_R_SQUARED 0.34, read-out: LUCIFERASE INFECTION ASSAY - IC50
  IC50: 4.65 µM
  IC90: 8.03 µM

## Cc1cccc(Nc2ccccc2C(=O)OCC(=O)Nc2cccc(C#N)c2)c1C
HEPG2TOX_HILL_SLOPE 6.86, HEPG2TOX_R_SQUARED 0.37, PBLUC_HILL_SLOPE 1.78, PBLUC_R_SQUARED 0.801, read-out: LUCIFERASE INFECTION ASSAY - IC50
  IC50: 3.16 µM
  IC90: > 10 µM

## CCN(CC)S(=O)(=O)c1ccc(-c2csc(Nc3ccccn3)n2)cc1
[1]
  IC50: > 10 µM
  IC90: > 10 µM

## C=CCNC(=O)NC(=O)CSc1nnc(-c2ccc(OC)cc2)n1-c1cccc(C(F)(F)F)c1
HEPG2TOX_HILL_SLOPE 2.39, HEPG2TOX_R_SQUARED 0.903, PBLUC_HILL_SLOPE 3.60, 2.97, PBLUC_R_SQUARED 0.951, 0.459, read-out: LUCIFERASE INFECTION ASSAY - IC50
  IC50: 3.56 µM
  IC90: 6.91 µM

## Cc1cc(C(=O)NNC(=O)c2ccc3ccccc3n2)c2cnn(Cc3cccs3)c2n1
HEPG2TOX_HILL_SLOPE 8.79, HEPG2TOX_R_SQUARED 0.448, PBLUC_HILL_SLOPE 5.17, PBLUC_R_SQUARED 0.697, read-out: LUCIFERASE INFECTION ASSAY - IC50
  IC50: 5.99 µM
  IC90: 9.16 µM

## CC(C)(C)c1ccc(C(=O)Nc2ccc(N3CCCS3(=O)=O)cc2)cc1[N+](=O)[O-]
HEPG2TOX_HILL_SLOPE 9.4, HEPG2TOX_R_SQUARED 0.847, PBLUC_HILL_SLOPE 1.92, PBLUC_R_SQUARED 0.511, read-out: LUCIFERASE INFECTION ASSAY - IC50
  IC50: 1.6 µM
  IC90: 5.03 µM

## O=C(/C=C/c1ccccc1[N+](=O)[O-])OCc1nc2ccccc2s1
PBLUC_HILL_SLOPE 15.4, PBLUC_R_SQUARED 0.138, read-out: LUCIFERASE INFECTION ASSAY - IC50
  IC50: > 10 µM
  IC90: > 10 µM

## O=C1NC2=C(C(=O)N(CCC3=CCCCC3)C2)C(c2ccc(F)cc2)N1 (stereo not drawn)
[1]
  IC50: > 10 µM
  IC90: > 10 µM

## CCCc1c(C(=O)ONC(=N)c2ccc(C(C)(C)C)cc2)cnn1-c1ccccc1
[1]
  IC50: > 8.16 µM
  IC90: > 8.16 µM

## COC(=O)c1cc(-c2ccc(C)cc2)nc2onc(C(C)C)c12
[1]
  IC50: > 10 µM
  IC90: > 10 µM

## O=C(OCc1csc(-c2ccccc2)n1)c1cc(O)c2ccccc2c1O
FFLUC_HILL_SLOPE 21.7, FFLUC_R_SQUARED 0.124, read-out: LUCIFERASE INFECTION ASSAY - IC50
  IC50: > 10 µM
  IC90: > 10 µM

## CCOc1ccccc1C=C(c1nc2ccccc2s1)c1nc2ccccc2s1
PBLUC_HILL_SLOPE 3.78, PBLUC_R_SQUARED 0.344, read-out: LUCIFERASE INFECTION ASSAY - IC50
  IC50: 5.48 µM
  IC90: 9.81 µM

## N#CC(C(=O)COC(=O)c1cn(-c2ccccc2)nc1-c1ccccc1)=C1Nc2ccccc2N1
[1]
  IC50: > 10 µM
  IC90: > 10 µM

## Cc1nc(-c2ccc(NC(=O)c3cnn(-c4ccccc4F)c3C(F)(F)F)cc2)cs1
PBLUC_HILL_SLOPE 2.7, PBLUC_R_SQUARED 0.26, read-out: LUCIFERASE INFECTION ASSAY - IC50
  IC50: 7.76 µM
  IC90: > 10 µM

## CCCCNC(=O)c1c(NC(=O)c2c(F)cccc2F)nc2ccc(C)cn12
[1]
  IC50: 5.12 µM
  IC90: 6.69 µM

## COc1ccc(/C(C)=N/OCC(=O)O)cc1
PBLUC_HILL_SLOPE 3.66, PBLUC_R_SQUARED 0.112, read-out: LUCIFERASE INFECTION ASSAY - IC50
  IC50: > 14.8 µM
  IC90: > 14.8 µM

## Cc1ccc(-n2c(C)cc(C(=O)COC(=O)c3cccn3C)c2C)cc1
PBLUC_HILL_SLOPE 1.64, PBLUC_R_SQUARED 0.0485, read-out: LUCIFERASE INFECTION ASSAY - IC50
  IC50: 5.54 µM
  IC90: > 10 µM

## CCN1C(c2ccc(C)cc2)=CS/C1=C(/C#N)c1nnc2n1CCCCC2
[1]
  IC50: > 10 µM
  IC90: > 10 µM

## CC(=O)c1c(C)[nH]c(C(=O)OCC(=O)NC2CCCc3ccccc32)c1C (stereo not drawn)
HEPG2TOX_HILL_SLOPE 1.17, HEPG2TOX_R_SQUARED 0.444, read-out: LUCIFERASE INFECTION ASSAY - IC50
  IC50: > 10 µM
  IC90: > 10 µM

## Cc1cc(=O)oc2cc(NCC(=O)Nc3cc4c(cc3Cl)OCCO4)ccc12
[1]
  IC50: > 10 µM
  IC90: > 10 µM

## COc1cccc(OC)c1C(=O)Nc1cc2c(c([N+](=O)[O-])c1C)C(C)(C)CC2(C)C
FFLUC_HILL_SLOPE 10.9, FFLUC_R_SQUARED 0.163, HEPG2TOX_HILL_SLOPE 1.05, HEPG2TOX_R_SQUARED 0.731, PBLUC_HILL_SLOPE 1.82, PBLUC_R_SQUARED 0.597, read-out: LUCIFERASE INFECTION ASSAY - IC50
  IC50: 2.09 µM
  IC90: 6.98 µM

## CCCCNC(=O)c1c(NC(=O)C(CC)c2ccccc2)nc2ccc(C)cn12 (stereo not drawn)
FFLUC_HILL_SLOPE 12.5, FFLUC_R_SQUARED 0.645, PBLUC_HILL_SLOPE 0.242, PBLUC_R_SQUARED 0.0523, read-out: LUCIFERASE INFECTION ASSAY - IC50
  IC50: > 8.41 µM
  IC90: > 8.41 µM

## COc1ccc(-c2ccc(CCC(=O)Nc3sccc3C#N)o2)cc1
[1]
  IC50: 7.82 µM
  IC90: > 10 µM

## Cc1ccc(C(=O)Nc2nc3ccccc3[nH]2)cc1NC(=O)c1ccco1
PBLUC_HILL_SLOPE 2.56, PBLUC_R_SQUARED 0.483, read-out: LUCIFERASE INFECTION ASSAY - IC50
  IC50: 4.68 µM
  IC90: > 10 µM

## COc1cc(-n2nnnc2-c2ccc([N+](=O)[O-])cc2)c(Cl)cc1Cl
[1]
  IC50: > 9.01 µM
  IC90: > 9.01 µM

## CC(OC(=O)c1c(NC(=O)C2CCCCC2)sc2c1CCC2)C(=O)Nc1[nH]cnc2ncnc1-2 (stereo not drawn)
HEPG2TOX_HILL_SLOPE 8.29, HEPG2TOX_R_SQUARED 0.38, read-out: LUCIFERASE INFECTION ASSAY - IC50
  IC50: > 10 µM
  IC90: > 10 µM

## Cc1nc(NCCCc2n[nH]c(N)c2C#N)c2c(-c3ccccc3)csc2n1
PBLUC_HILL_SLOPE 3.76, PBLUC_R_SQUARED 0.424, read-out: LUCIFERASE INFECTION ASSAY - IC50
  IC50: 5.44 µM
  IC90: 9.77 µM

## CC1CN(S(=O)(=O)NCC(c2ccccc2Cl)c2c[nH]c3ccccc23)CC(C)O1 (stereo not drawn)
[1]
  IC50: > 10 µM
  IC90: > 10 µM

## Cc1[nH]nc2ccnc(-c3cccc(Cl)c3)c12
HEPG2TOX_HILL_SLOPE 7.21, HEPG2TOX_R_SQUARED 0.311, read-out: LUCIFERASE INFECTION ASSAY - IC50
  IC50: > 10 µM
  IC90: > 10 µM

## Fc1ccc(NC(=S)N2CCN(c3ncnc4sccc34)CC2)c(F)c1
HEPG2TOX_HILL_SLOPE 0.955, HEPG2TOX_R_SQUARED 0.941, PBLUC_HILL_SLOPE 17.3, PBLUC_R_SQUARED 0.219, read-out: LUCIFERASE INFECTION ASSAY - IC50
  IC50: 2.62 µM
  IC90: 2.97 µM

## CN(Cc1ccccc1)C(=O)Nc1cccc2ncccc12
[1]
  IC50: > 10 µM
  IC90: > 10 µM

## COc1ccccc1NCC(=O)N/N=C/c1cc(C)c2cc(C(C)C)ccc(C)c1-2
[1]
  IC50: > 10 µM
  IC90: > 10 µM

## CC(=O)Nc1ccc(C2NC(=O)NC(c3ccccc3)=C2c2nc3ccccc3s2)cc1 (stereo not drawn)
[1]
  IC50: > 10 µM
  IC90: > 10 µM

## O=C(NNC(=O)c1ccccc1OCc1cn2ccccc2n1)c1ccc2ccccc2n1
HEPG2TOX_HILL_SLOPE 1.26, HEPG2TOX_R_SQUARED 0.832, PBLUC_HILL_SLOPE 7.59, PBLUC_R_SQUARED 0.237, read-out: LUCIFERASE INFECTION ASSAY - IC50
  IC50: 1.31 µM
  IC90: 1.74 µM

## N#CCCNS(=O)(=O)c1ccc(C(=O)Nc2ccc(Nc3ccccc3)cc2)cc1
HEPG2TOX_HILL_SLOPE 10.9, HEPG2TOX_R_SQUARED 0.158, PBLUC_HILL_SLOPE 11.4, PBLUC_R_SQUARED 0.555, read-out: LUCIFERASE INFECTION ASSAY - IC50
  IC50: 3.06 µM
  IC90: 3.71 µM

## CCOC(=O)C1(C)CCCN1C(=O)c1cccs1 (stereo not drawn)
[1]
  IC50: > 12.3 µM
  IC90: > 12.3 µM

## CCOC(=O)c1c(C)[nH]c(C(=O)Nc2nc(-c3ccc(C4CCCCC4)cc3)cs2)c1C
HEPG2TOX_HILL_SLOPE 12.2, HEPG2TOX_R_SQUARED 0.959, PBLUC_HILL_SLOPE 12.5, PBLUC_R_SQUARED 0.559, read-out: LUCIFERASE INFECTION ASSAY - IC50
  IC50: 7.88 µM
  IC90: 9.4 µM

## Nc1ccc(OC2=C(Cl)C(=O)c3ccccc3C2=O)cc1
HEPG2TOX_HILL_SLOPE 2.46, HEPG2TOX_R_SQUARED 0.976, PBLUC_HILL_SLOPE 10.6, PBLUC_R_SQUARED 0.396, read-out: LUCIFERASE INFECTION ASSAY - IC50
  IC50: 4.8 µM
  IC90: 5.91 µM

## CN(C)CCNc1nc(Oc2cccc3ccccc23)c2sccc2n1
PBLUC_HILL_SLOPE 11.6, PBLUC_R_SQUARED 0.0493, read-out: LUCIFERASE INFECTION ASSAY - IC50
  IC50: 8.94 µM
  IC90: > 9.05 µM

## CCCCC(=O)OCC(=O)Nc1nc(-c2ccc(C)cc2O)cs1
[1]
  IC50: > 10 µM
  IC90: > 10 µM

## CS(=O)(=O)NC1CCN(c2nc(-c3ccccn3)nc3sc(-c4ccccc4)cc23)CC1
PBLUC_HILL_SLOPE 90.2, PBLUC_R_SQUARED 0.429, read-out: LUCIFERASE INFECTION ASSAY - IC50
  IC50: 3.34 µM
  IC90: 3.42 µM

## COc1ccc(NC2=NC(=O)/C(=C/c3cc(C)n(-c4cccc(Cl)c4Cl)c3C)S2)cc1
PBLUC_HILL_SLOPE 2.19, 1.56, PBLUC_R_SQUARED 0.711, 0.979, read-out: LUCIFERASE INFECTION ASSAY - IC50
  IC50: 0.238 µM
  IC90: 0.771 µM

## Cc1nn(-c2ccccc2)c2c1C1(C(=O)Nc3ccccc31)N1N=NN(c3ccccc3)C1=N2 (stereo not drawn)
PBLUC_HILL_SLOPE 0.947, PBLUC_R_SQUARED 0.0755, read-out: LUCIFERASE INFECTION ASSAY - IC50
  IC50: > 10 µM
  IC90: > 10 µM

## Cn1ccc2cc(-c3cnc4cnc(-c5ccc(F)c(Cl)c5)cn34)ccc21
HEPG2TOX_HILL_SLOPE 3.52, HEPG2TOX_R_SQUARED 0.929, PBLUC_HILL_SLOPE 14.4, PBLUC_R_SQUARED 0.566, read-out: LUCIFERASE INFECTION ASSAY - IC50
  IC50: 3.05 µM
  IC90: 3.55 µM
